Experimental data taken from patent publication US9920063B2, “Melampomagnolide B derivatives” (Board of Trustees of the University of Arkansas, priority 2013, dated 2018).
Where two headings read alike, the source gives them in different places.

Legend:
SW-620 = assay: NCI human tumor cell line panel, Colon Cancer
AML 052308 cells = assay: Antileukemic activity against AML 052308 cells in culture
Procedure: For each compound, in vitro cell culture studies were performed in which a range of concentrations (0.25-20 μM) was tested for cytotoxicity against leukemia cell lines, primary leukemia specimens and normal bone marrow controls.

## C=C1C(=O)O[C@H]2[C@H]1CC/C(COC(=O)c1cc3ccccc3[nH]1)=C\CC[C@@]1(C)O[C@@H]21 [BS-1-28]
A549/ATCC
  CC50: 59.3 µM
A549/ATCC; A549/ATCC, Log10 Concentration −4.0
  Percent Growth: −53%
A549/ATCC; A549/ATCC, Log10 Concentration −5.0
  Percent Growth: −41%
A549/ATCC; A549/ATCC, Log10 Concentration −6.0
  Percent Growth: 92%
A549/ATCC; A549/ATCC, Log10 Concentration −7.0
  Percent Growth: 96%
A549/ATCC; A549/ATCC, Log10 Concentration −8.0
  Percent Growth: 91%
A549/ATCC; A549/ATCC, NCI five dose
  GI50: 2.06 µM
  TGI: 4.90E−6
HOP-92
  CC50: 4.66 µM
HOP-92; HOP-92, Log10 Concentration −4.0
  Percent Growth: −97%
HOP-92; HOP-92, Log10 Concentration −5.0
  Percent Growth: −91%
HOP-92; HOP-92, Log10 Concentration −6.0
  Percent Growth: 40%
HOP-92; HOP-92, Log10 Concentration −7.0
  Percent Growth: 71%
HOP-92; HOP-92, Log10 Concentration −8.0
  Percent Growth: 74%
HOP-92; HOP-92, NCI five dose
  GI50: 0.48 µM
  TGI: 2.02E−6
NCI-H226
  CC50: 7.01 µM
NCI-H226; NCI-H226, Log10 Concentration −4.0
  Percent Growth: −71%
NCI-H226; NCI-H226, Log10 Concentration −5.0
  Percent Growth: −73%
NCI-H226; NCI-H226, Log10 Concentration −6.0
  Percent Growth: 74%
NCI-H226; NCI-H226, Log10 Concentration −7.0
  Percent Growth: 88%
NCI-H226; NCI-H226, Log10 Concentration −8.0
  Percent Growth: 92%
NCI-H226; NCI-H226, NCI five dose
  GI50: 1.47 µM
  TGI: 3.21E−6
NCI-H23
  CC50: 7.72 µM
NCI-H23; NCI-H23, Log10 Concentration −4.0
  Percent Growth: −84%
NCI-H23; NCI-H23, Log10 Concentration −5.0
  Percent Growth: −67%
NCI-H23; NCI-H23, Log10 Concentration −6.0
  Percent Growth: 85%
NCI-H23; NCI-H23, Log10 Concentration −7.0
  Percent Growth: 96%
NCI-H23; NCI-H23, Log10 Concentration −8.0
  Percent Growth: 96%
NCI-H23; NCI-H23, NCI five dose
  GI50: 1.69 µM
  TGI: 3.62E−6
NCI-H522
  CC50: 6.72 µM
NCI-H522; NCI-H522, Log10 Concentration −4.0
  Percent Growth: −72%
NCI-H522; NCI-H522, Log10 Concentration −5.0
  Percent Growth: −69%
NCI-H522; NCI-H522, Log10 Concentration −6.0
  Percent Growth: 43%
NCI-H522; NCI-H522, Log10 Concentration −7.0
  Percent Growth: 104%
NCI-H522; NCI-H522, Log10 Concentration −8.0
  Percent Growth: 83%
NCI-H522; NCI-H522, NCI five dose
  GI50: 0.757 µM
  TGI: 2.40E−6
HCC-2998
  CC50: 8.77 µM
HCC-2998; HCC-2998, Log10 Concentration −4.0
  Percent Growth: −84%
HCC-2998; HCC-2998, Log10 Concentration −5.0
  Percent Growth: −59%
HCC-2998; HCC-2998, Log10 Concentration −6.0
  Percent Growth: 104%
HCC-2998; HCC-2998, Log10 Concentration −7.0
  Percent Growth: 104%
HCC-2998; HCC-2998, Log10 Concentration −8.0
  Percent Growth: 103%
HCC-2998; HCC-2998, NCI five dose
  GI50: 2.14 µM
  TGI: 4.33E−6
HT29
  CC50: 5.97 µM
HT29; HT29, Log10 Concentration −4.0
  Percent Growth: −80%
HT29; HT29, Log10 Concentration −5.0
  Percent Growth: −57%
HT29; HT29, Log10 Concentration −6.0
  Percent Growth: −25%
HT29; HT29, Log10 Concentration −7.0
  Percent Growth: 109%
HT29; HT29, Log10 Concentration −8.0
  Percent Growth: 103%
HT29; HT29, NCI five dose
  GI50: 0.276 µM
  TGI: 6.51E−7
U251
  CC50: 8.68 µM
U251; U251, Log10 Concentration −4.0
  Percent Growth: −74%
U251; U251, Log10 Concentration −5.0
  Percent Growth: −59%
U251; U251, Log10 Concentration −6.0
  Percent Growth: 92%
U251; U251, Log10 Concentration −7.0
  Percent Growth: 96%
U251; U251, Log10 Concentration −8.0
  Percent Growth: 98%
U251; U251, NCI five dose
  GI50: 1.69 µM
  TGI: 4.06E−6
SK-MEL-2
  CC50: 7.83 µM
SK-MEL-2; SK-MEL-2, Log10 Concentration −4.0
  Percent Growth: −88%
SK-MEL-2; SK-MEL-2, Log10 Concentration −5.0
  Percent Growth: −67%
SK-MEL-2; SK-MEL-2, Log10 Concentration −6.0
  Percent Growth: 96%
SK-MEL-2; SK-MEL-2, Log10 Concentration −7.0
  Percent Growth: 113%
SK-MEL-2; SK-MEL-2, Log10 Concentration −8.0
  Percent Growth: 103%
SK-MEL-2; SK-MEL-2, NCI five dose
  GI50: 1.92 µM
  TGI: 3.88E−6
SK-MEL-28
  CC50: 5.74 µM
SK-MEL-28; SK-MEL-28, Log10 Concentration −4.0
  Percent Growth: −93%
SK-MEL-28; SK-MEL-28, Log10 Concentration −5.0
  Percent Growth: 47%
SK-MEL-28; SK-MEL-28, Log10 Concentration −6.0
  Percent Growth: 67%
SK-MEL-28; SK-MEL-28, Log10 Concentration −7.0
  Percent Growth: 101%
SK-MEL-28; SK-MEL-28, Log10 Concentration −8.0
  Percent Growth: 90%
SK-MEL-28; SK-MEL-28, NCI five dose
  GI50: 1.28 µM
  TGI: 2.72E−6
OVCAR-4
  CC50: 8.43 µM
OVCAR-4; OVCAR-4, Log10 Concentration −4.0
  Percent Growth: −84%
OVCAR-4; OVCAR-4, Log10 Concentration −5.0
  Percent Growth: −58%
OVCAR-4; OVCAR-4, Log10 Concentration −6.0
  Percent Growth: 48%
OVCAR-4; OVCAR-4, Log10 Concentration −7.0
  Percent Growth: 88%
OVCAR-4; OVCAR-4, Log10 Concentration −8.0
  Percent Growth: 4%
OVCAR-4; OVCAR-4, NCI five dose
  TGI: 2.85E−6
A498
  CC50: 5.63 µM
A498; A498, Log10 Concentration −4.0
  Percent Growth: −95%
A498; A498, Log10 Concentration −5.0
  Percent Growth: −99%
A498; A498, Log10 Concentration −6.0
  Percent Growth: 97%
A498; A498, Log10 Concentration −7.0
  Percent Growth: 102%
A498; A498, Log10 Concentration −8.0
  Percent Growth: 110%
A498; A498, NCI five dose
  GI50: 1.74 µM
  TGI: 3.43E−6
CAKI-1
  CC50: 4.82 µM
CAKI-1; CAKI-1, Log10 Concentration −4.0
  Percent Growth: −100%
CAKI-1; CAKI-1, Log10 Concentration −5.0
  Percent Growth: −99%
CAKI-1; CAKI-1, Log10 Concentration −6.0
  Percent Growth: 55%
CAKI-1; CAKI-1, Log10 Concentration −7.0
  Percent Growth: 90%
CAKI-1; CAKI-1, Log10 Concentration −8.0
  Percent Growth: 86%
CAKI-1; CAKI-1, NCI five dose
  GI50: 1.08 µM
  TGI: 2.18E−6
UO-31
  CC50: 5 µM
UO-31; UO-31, Log10 Concentration −4.0
  Percent Growth: −89%
UO-31; UO-31, Log10 Concentration −5.0
  Percent Growth: −92%
UO-31; UO-31, Log10 Concentration −6.0
  Percent Growth: 49%
UO-31; UO-31, Log10 Concentration −7.0
  Percent Growth: 74%
UO-31; UO-31, Log10 Concentration −8.0
  Percent Growth: 72%
UO-31; UO-31, NCI five dose
  GI50: 0.887 µM
  TGI: 2.21E−6
DU-145
  CC50: 5.2 µM
DU-145; DU-145, Log10 Concentration −4.0
  Percent Growth: −98%
DU-145; DU-145, Log10 Concentration −5.0
  Percent Growth: −95%
DU-145; DU-145, Log10 Concentration −6.0
  Percent Growth: 63%
DU-145; DU-145, Log10 Concentration −7.0
  Percent Growth: 98%
DU-145; DU-145, Log10 Concentration −8.0
  Percent Growth: 91%
DU-145; DU-145, NCI five dose
  GI50: 1.21 µM
  TGI: 2.51E−6
MDA-MB-231/ATCC
  CC50: 8.56 µM
MDA-MB-231/ATCC; MDA-MB-231/ATCC, Log10 Concentration −4.0
  Percent Growth: −73%
MDA-MB-231/ATCC; MDA-MB-231/ATCC, Log10 Concentration −5.0
  Percent Growth: −58%
MDA-MB-231/ATCC; MDA-MB-231/ATCC, Log10 Concentration −6.0
  Percent Growth: 56%
MDA-MB-231/ATCC; MDA-MB-231/ATCC, Log10 Concentration −7.0
  Percent Growth: 87%
MDA-MB-231/ATCC; MDA-MB-231/ATCC, Log10 Concentration −8.0
  Percent Growth: 89%
MDA-MB-231/ATCC; MDA-MB-231/ATCC, NCI five dose
  GI50: 1.14 µM
  TGI: 3.12E−6
SW-620; Log10 Concentration −4.0
  Percent Growth: −75%
SW-620; Log10 Concentration −5.0
  Percent Growth: −67%
SW-620; Log10 Concentration −6.0
  Percent Growth: −19%
SW-620; Log10 Concentration −7.0
  Percent Growth: 98%
SW-620; Log10 Concentration −8.0
  Percent Growth: 93%
SW-620; NCI five dose
  GI50: 0.256 µM
  TGI: 8.88E−7
SW-620; read-out: LC50, NCI five dose
  CC50: 4.47 µM
AML 052308 cells; AML 052308 cells
  Fold more potent than parthenolide: around 3 fold
AML 052308 cells; AML 052308 cells in culture
  EC50: 2.2 µM
